Experiment: xn = mol fraction of the nth substance listed

CCCCN + Cc1ccccc1
303.15 K, 101 kPa
Conditions | viscosity [mPa·s]
x1 = 0.0685 | 0.51
x1 = 0.1474 | 0.497
x1 = 0.2553 | 0.485
x1 = 0.328 | 0.474
x1 = 0.4247 | 0.464
x1 = 0.5197 | 0.457
x1 = 0.6107 | 0.453
x1 = 0.6993 | 0.449
x1 = 0.7946 | 0.446
x1 = 0.8819 | 0.445
x1 = 0.9407 | 0.444
x2 = 0.1475 | 0.4405
x2 = 0.2127 | 0.441
x2 = 0.2918 | 0.439
x2 = 0.3842 | 0.4402
x2 = 0.5074 | 0.4449
x2 = 0.6083 | 0.4543
x2 = 0.7064 | 0.4677
x2 = 0.8686 | 0.4956

CCCCN + CCCCCCCC
303.15 K, 101.33 kPa
Conditions | viscosity [mPa·s]
x1 = 0.1275 | 0.462
x1 = 0.2962 | 0.441
x1 = 0.4015 | 0.433
x1 = 0.5214 | 0.428
x1 = 0.6438 | 0.42
x1 = 0.7573 | 0.434
x1 = 0.9231 | 0.478

OC1CCCCCC1 + OCCO
viscosity [mPa·s], 100 kPa
Conditions | 293.15 K | 298.15 K | 303.15 K | 308.15 K | 313.15 K | 318.15 K
x1 = 0.0095 | 20.34 | 16.92 | 13.81 | 11.37 | 9.587 | 7.9
x1 = 0.0395 | 20.45 | 16.98 | 13.85 | 11.42 | 9.625 | 7.92
x1 = 0.0578 | 20.52 | 17.02 | 13.9 | 11.44 | 9.638 | 7.931
x1 = 0.0878 | 20.65 | 17.12 | 13.95 | 11.49 | 9.678 | 7.957
x1 = 0.1 | 20.71 | 17.16 | 13.98 | 11.51 | 9.694 | 7.972
x1 = 0.1961 | 21.18 | 17.53 | 14.22 | 11.7 | 9.819 | 8.064
x1 = 0.305 | 21.95 | 18.16 | 14.85 | 12.27 | 10.25 | 8.379
x1 = 0.3969 | 22.89 | 19.04 | 15.54 | 12.83 | 10.68 | 8.723
x1 = 0.4993 | 24.41 | 20.37 | 16.58 | 13.61 | 11.32 | 9.271
x1 = 0.5877 | 26.32 | 21.93 | 17.76 | 14.49 | 12.06 | 9.883
x1 = 0.6993 | 29.93 | 24.59 | 19.71 | 15.94 | 13.24 | 10.77
x1 = 0.7996 | 34.97 | 28.03 | 22.14 | 17.65 | 14.57 | 11.68
x1 = 0.8977 | 45.8 | 36.3 | 28.9 | 22.7 | 19 | 15.7

CCCCN + CCCCCCCCO
viscosity [mPa·s], 101.33 kPa
Conditions | 303.15 K | 313.15 K | 323.15 K
x1 = 0.094 | 5.27 | 3.765 | –
x1 = 0.1 | 5.075 | 3.779 | 2.828
x1 = 0.1949 | 4.391 | 3.129 | –
x1 = 0.2011 | 4.061 | 3.065 | 2.358
x1 = 0.288 | 3.626 | 2.585 | –
x1 = 0.3 | 3.239 | 2.487 | 1.942
x1 = 0.4015 | 2.547 | 1.984 | 1.576
x1 = 0.4199 | 2.665 | 1.929 | –
x1 = 0.5003 | 1.995 | 1.59 | 1.289
x1 = 0.5164 | 2.065 | 1.521 | –
x1 = 0.6002 | 1.528 | 1.235 | 1.021
x1 = 0.619 | 1.523 | 1.154 | –
x1 = 0.7003 | 1.141 | 0.945 | 0.791
x1 = 0.7192 | 1.103 | 0.8639 | –
x1 = 0.7998 | 0.847 | 0.716 | 0.614
x1 = 0.8084 | 0.8208 | 0.6658 | –
x1 = 0.9 | 0.623 | 0.537 | 0.466
x1 = 0.9064 | 0.5902 | 0.5049 | –

CC[N+](CC)(CC)Cc1ccccc1.[Cl-] + O
viscosity [mPa·s], 100 kPa
Conditions | 298.15 K | 303.15 K | 308.15 K | 313.15 K | 318.15 K
x1 = 8e-05 | 0.8929 | 0.7989 | 0.7209 | 0.6322 | 0.5462
x1 = 0.0002 | 0.8948 | 0.8015 | 0.7259 | 0.6354 | 0.5509
x1 = 0.0004 | 0.8991 | 0.8041 | 0.7284 | 0.6358 | 0.552

CC[N+](=O)[O-] + Cc1cc(C)cc(C)c1
293.15 K, 101.33 kPa
Conditions | viscosity [mPa·s]
x1 = 0.0912 | 0.69
x1 = 0.1908 | 0.685
x1 = 0.2974 | 0.68
x1 = 0.3871 | 0.675
x1 = 0.5179 | 0.669
x1 = 0.6112 | 0.665
x1 = 0.6912 | 0.665
x1 = 0.7813 | 0.669
x1 = 0.8874 | 0.671

O=c1[nH]cc(F)c(=O)[nH]1 + O
298.15 K, 101.3 kPa
Conditions | viscosity [mPa·s]
x1 = 3.46e-05 | 0.8891
x1 = 9.06e-05 | 0.8892
x1 = 0.000191 | 0.8901
x1 = 0.000303 | 0.8905
x1 = 0.000519 | 0.8917
x1 = 0.000754 | 0.8926
x1 = 0.000864 | 0.8933
x1 = 0.00108 | 0.8946

O=[N+]([O-])[O-].[Ag+] + CC#N
298.15 K, 101 kPa
Conditions | viscosity [mPa·s]
x1 = 0.012 | 0.409
x1 = 0.03806 | 0.524
x1 = 0.1017 | 1.046
x1 = 0.2421 | 6.48

CC[N+](=O)[O-] + CC(C)O
viscosity [mPa·s], 101.33 kPa
Conditions | 293.15 K | 303.15 K | 313.15 K
x2 = 0.0501 | 0.68 | 0.605 | 0.536
x2 = 0.1 | 0.672 | 0.595 | 0.53
x2 = 0.15 | 0.671 | 0.592 | 0.526
x2 = 0.2 | 0.678 | 0.594 | 0.526
x2 = 0.25 | 0.698 | 0.601 | 0.53
x2 = 0.3 | 0.707 | 0.613 | 0.538
x2 = 0.35 | 0.729 | 0.628 | 0.546
x2 = 0.4 | 0.766 | 0.647 | 0.559
x2 = 0.4501 | 0.8 | 0.67 | 0.576
x2 = 0.5 | 0.827 | 0.697 | 0.597
x2 = 0.5499 | 0.881 | 0.731 | 0.62
x2 = 0.6001 | 0.932 | 0.777 | 0.648
x2 = 0.65 | 1 | 0.819 | 0.683
x2 = 0.7 | 1.08 | 0.877 | 0.725
x2 = 0.7499 | 1.18 | 0.949 | 0.774
x2 = 0.8 | 1.276 | 1.052 | 0.849
x2 = 0.8499 | 1.467 | 1.154 | 0.915
x2 = 0.9 | 1.681 | 1.305 | 1.021
x2 = 0.95 | 1.983 | 1.507 | 1.16

From the CheMixHub viscosity set
